Test results: ChEMBL document CHEMBL3301361, “Experimental in vitro DMPK and physicochemical data on a set of publicly disclosed compounds”
Converted amounts (≈) assume the structure as drawn.

Tests used:
in vitro [1] = conditions: SD, HW or BN, rat, plasma
physchem [2] = conditions: octan-1-ol/water, pH 7.4, LogD7.4
in vitro [3] = conditions: human, plasma
in vitro [4] = conditions: human
physchem [5] = conditions: pH 7.4 buffer

## CN1CCC(N2CCN(C(=O)[C@H](NC(=O)c3ccc4cc[nH]c4c3)c3ccccc3)CC2)CC1 [LY-517717]
In vitro [1]
  fraction unbound at 5 h: 0.54

## C=CCN(C)CCCCCCOc1ccc(C(=O)c2ccc(Br)cc2)c(F)c1
In vitro [1]
  fraction unbound at 5 h: 0.0006

## Cc1cc([C@H](O)[C@](C)(OCc2ccc(-c3ccccc3)cc2)C(=O)NO)no1
Physchem [2]
  logD: 2.88
In vitro [3]; PPB
  fraction unbound at 5 h: 0.0328
In vitro [4]; liver microsomes
  microsomal CLint: 15.8 µL/min/mg

## CC(C)(C)OC(=O)NC[C@H]1CC[C@H](CNC(=O)c2cc(-c3ccc(CN)cc3)nc3ccccc23)CC1
In vitro [1]
  fraction unbound at 5 h: 0.0139

## CN(C)CCC1CCN(c2cc(C(=O)NC[C@H]3CC[C@H](COC(=O)NC(C)(C)C)CC3)c3ccccc3n2)CC1
In vitro [1]
  fraction unbound at 5 h: 0.0328

## O=S(=O)(Nc1ncns1)c1cc(F)c(Oc2cc(F)c(Cl)cc2-c2cn[nH]c2)cc1F
In vitro [1]
  fraction unbound at 5 h: 0.002

## c1ccc(-c2[nH]nc3ccccc23)cc1
Physchem [2]
  logD: 3.79
In vitro [3]; PPB
  fraction unbound at 5 h: 0.0307
In vitro [4]; microsomes
  microsomal CLint: < 3 µL/min/mg

## c1nc(Cc2ccsc2)c[nH]1
In vitro [1]
  fraction unbound at 5 h: 0.371

## COc1cc(NC(C)CCCN)c2ncccc2c1 (configuration not stated) [PRIMAQUINE]
In vitro [3]; PPB
  fraction unbound at 5 h: 0.403
In vitro [4]; liver microsomes
  microsomal CLint: < 3 µL/min/mg

## Cc1cccc2cc(CN(Cc3ccco3)C(=O)Nc3cccc(C#N)c3)c(Cl)nc12
In vitro [1]
  fraction unbound at 5 h: 0.0009

## CN(C)CCOC1CN(c2cc(C(=O)NC[C@H]3CC[C@H](CNC(=O)OC(C)(C)C)CC3)c3ccccc3n2)C1
In vitro [1]
  fraction unbound at 5 h: 0.129

## O=C(NC1CC1)c1cc(-c2cccs2)on1
Physchem [2]
  logD: 2.54
In vitro [3]; PPB
  fraction unbound at 5 h: 0.0768
In vitro [4]; liver microsomes
  microsomal CLint: 38.9 µL/min/mg

## CC(C)(C)OC(=O)NC[C@H]1CC[C@H](CNC(=O)c2cc(N3CCC(CCN)CC3)nc3ccccc23)CC1
In vitro [1]
  fraction unbound at 5 h: 0.0321

## O=C(CC12CC3CC(CC(C3)C1)C2)Nc1cccc2c(=O)n(C[C@H]3CCCN3)ccc12
In vitro [1]
  fraction unbound at 5 h: 0.151

## Cc1c(-c2cc3ccccc3o2)oc(=O)c(C)c1O
In vitro [1]
  fraction unbound at 5 h: 0.0026

## C[S+]([O-])Cc1ccc(C(=O)Nc2cccnc2C(=O)NCC2CCOCC2)c2ccccc12 (configuration not stated)
In vitro [1]
  fraction unbound at 5 h: 0.154

## COc1ccnc(CCc2nc3c(C)ccnc3[nH]2)c1
Physchem [2]
  logD: 2.1
In vitro [3]; PPB
  fraction unbound at 5 h: 0.197
In vitro [4]; microsomes
  microsomal CLint: < 3 µL/min/mg

## CCCCCCc1nc2c(N)nc3ccccc3c2n1Cc1ccccc1
In vitro [3]; PPB
  fraction unbound at 5 h: 0.0036
In vitro [4]; liver microsomes
  microsomal CLint: < 3 µL/min/mg

## CC[C@H](CO)Nc1nc(SCc2ccccc2)nc2nc(N)sc12
Physchem [2]
  logD: 3.27
In vitro [3]; PPB
  fraction unbound at 5 h: 0.013
In vitro [4]; liver microsomes
  microsomal CLint: 8.71 µL/min/mg

## Cc1ccc2c(c1)c(-c1ccnc3c(F)cccc13)c(C)n2CC(=O)O
Physchem [2]
  logD: 0.53
In vitro [3]; PPB
  fraction unbound at 5 h: 0.009
In vitro [4]; liver microsomes
  microsomal CLint: < 3 µL/min/mg

## N#CC1=C2C(=NC1=O)c1cccc3c(N4CCSCC4)ccc2c13
Physchem [2]
  logD: 3.22
In vitro [3]; PPB
  fraction unbound at 5 h: 0.0139
In vitro [4]; liver microsomes
  microsomal CLint: 115 µL/min/mg

## COc1ccc2c(c1)c(-c1ccnc3cc(Cl)ccc13)c(C)n2CC(=O)O
Physchem [2]
  logD: 1.16
In vitro [3]; PPB
  fraction unbound at 5 h: 0.0031
In vitro [4]; liver microsomes
  microsomal CLint: 4 µL/min/mg

## N#Cc1ccc(F)c(-c2cc(C(F)(F)F)ccc2OCC(=O)O)c1
Physchem [2]
  logD: -0.16
In vitro [3]; PPB
  fraction unbound at 5 h: 0.0293
In vitro [4]; microsomes
  microsomal CLint: < 3 µL/min/mg

## COc1cccc(S(=O)(=O)c2c(C)n(CC(=O)O)c3ccc(C)cc23)c1
Physchem [2]
  logD: -0.42
In vitro [3]; PPB
  fraction unbound at 5 h: 0.0063
In vitro [4]; liver microsomes
  microsomal CLint: 3 µL/min/mg

## C[C@H](CO)Nc1nc(SCc2cccc(F)c2F)nc2nc(NC3CC3)sc12
Physchem [2]
  logD: 4.37
In vitro [3]; PPB
  fraction unbound at 5 h: 0.0122
In vitro [4]; liver microsomes
  microsomal CLint: 66 µL/min/mg

## CS(=O)(=O)c1ccc(-c2nnc(/C=C/c3nnc(-c4ccc(C#N)cc4)o3)n2-c2ccccc2Cl)nc1
Physchem [2]
  logD: 2.66
In vitro [3]; PPB
  fraction unbound at 5 h: 0.0633
In vitro [4]; liver microsomes
  microsomal CLint: < 3 µL/min/mg

## COc1ccc(OC)c(CNC(=O)c2cccnc2Oc2ccccc2)c1
Physchem [2]
  logD: 3.52
In vitro [3]; PPB
  fraction unbound at 5 h: 0.002
In vitro [4]; liver microsomes
  microsomal CLint: 43.5 µL/min/mg

## CCS(=O)(=O)c1ccc(-c2cc(C(F)(F)F)ccc2O[C@@H](C)C(=O)O)c(C)c1
In vitro [3]; PPB
  fraction unbound at 5 h: 0.0418
In vitro [4]; liver microsomes
  microsomal CLint: < 3 µL/min/mg

## C[C@@H]1CN(Cc2ccc(F)cc2)CCN1C(=O)COc1ccc(Cl)cc1NC(N)=O [BX 471 FREE BASE]
In vitro [3]
  fraction unbound at 5 h: 0.0205
In vitro [4]; liver microsomes
  microsomal CLint: 21 µL/min/mg

## Cc1cc(Nc2cncc(N[C@@H](C)c3ccc(F)cn3)n2)[nH]n1
In vitro [3]; PPB
  fraction unbound at 5 h: 0.22
In vitro [4]; liver microsomes
  microsomal CLint: 34.7 µL/min/mg

## COc1ccccc1C(C#N)NC(=O)[C@@H]1CCCC[C@H]1C(=O)N1CCN(Cc2ccc(F)cc2)CC1 (some centres not stated)
Physchem [2]
  logD: 3.57
In vitro [3]; PPB
  fraction unbound at 5 h: 0.051
In vitro [4]; liver microsomes
  microsomal CLint: 127 µL/min/mg

## COc1ccccc1S(=O)(=O)NC(=O)N1CCC(N2CCC(Oc3ccc(Cl)c(Cl)c3)CC2)CC1
In vitro [3]; PPB
  fraction unbound at 5 h: 0.0409
In vitro [4]; liver microsomes
  microsomal CLint: < 3 µL/min/mg

## Cc1ccc(S(=O)(=O)N(C)C(=O)N2CCC(N3CCC(Oc4ccc(Cl)c(Cl)c4)CC3)CC2)cc1
In vitro [3]; PPB
  fraction unbound at 5 h: 0.0171
In vitro [4]; liver microsomes
  microsomal CLint: 10 µL/min/mg

## O=C(NC[C@@H](O)CN1CCC(Oc2ccc(Cl)c(Cl)c2)CC1)c1cc(=O)[nH]c2ccccc12
Physchem [2]
  logD: 3.48
Physchem [5]
  solubility thermodynamic: 15.8 µM (≈ 7.75 µg/mL)
In vitro [3]; PPB
  fraction unbound at 5 h: 0.0183
In vitro [4]; liver microsomes
  microsomal CLint: < 3 µL/min/mg

## CCCCCOc1ccc(C(=O)NC(C(=O)O)C(C)C)cc1 (configuration not stated)
In vitro [3]
  fraction unbound at 5 h: 0.0171
In vitro [4]; liver microsomes
  microsomal CLint: 5.5 µL/min/mg

## COc1ccc(-c2ccc3nc(N)sc3c2)cn1
Physchem [2]
  logD: 3.2
In vitro [3]; PPB
  fraction unbound at 5 h: 0.0383
In vitro [4]; liver microsomes
  microsomal CLint: 7.76 µL/min/mg

## CC(C)NC(=O)c1ccc2c(Nc3ccc(Cl)cc3)nc(N3CCOCC3)nc2c1
Physchem [2]
  logD: 2.78
In vitro [3]; PPB
  fraction unbound at 5 h: 0.0051
In vitro [4]; liver microsomes
  microsomal CLint: < 3 µL/min/mg

## Nc1ccc2nc(SCC(=O)NC3CCN(Cc4ccc(Cl)c(Cl)c4)CC3)sc2c1
In vitro [3]; PPB
  fraction unbound at 5 h: 0.262
In vitro [4]; liver microsomes
  microsomal CLint: 59 µL/min/mg
